Measurements as given in patent US20230371515A1, “FUNGICIDAL COMBINATION” (UPL Limited, priority 2020, published 2023).
Like-named read-outs stand apart in the source and are kept apart here.

How the values were obtained:
Botrytis cinerea = assay: Fungicidal efficacy trial (% control) on Botrytis cinerea, synergy by Colby's equation; format: cell-based; details: concentration 0.01 mg/L, observed efficacy
Excerpt: [table] Colby's equation was used to determine the fungicidal effects expected from the mixtures. The following equation was used to calculate the expected activity of mixtures containing two active ingredients, A and B: Expected=A+B−(A×B/100) • A=observed efficacy of active component A at the same concentration as used in the mixture; • B=observed efficacy of active component B at the same concentration as used in the mixture.

[1] = tested on: spores of Botrytis cinerea; assay: EC50 for in vitro inhibition of 50% of fungal population of spores of Botrytis cinerea; format: cell-based
Protocol: As used herein, according to the Fungicide Resistance Action Committee (FRAC), ‘EC50’ is defined as the fungicide dose that inhibits growth by 50% when compared with a nonamended control.
The EC50 values were evaluated to determine a lower concentration of the fungicides and the combination to achieve in vitro inhibition of 50% of fungal population of spores of Botrytis cinerea.

Q: What does the source list for `COc1ccnc(C(=O)N[C@H]2COC(=O)[C@H](Cc3ccccc3)[C@@H](OC(=O)C(C)C)[C@H](C)OC2=O)c1OCOC(=O)C(C)C` [Fenpicoxamide]?
A: % control (Botrytis cinerea): 15.45%; EC50 [1]: 0.46 µg/mL

Q: What does the source list for `O=C1C2CC=CCC2C(=O)N1SC(Cl)(Cl)Cl` (stereo not shown) [Captan]?
A: % control (Botrytis cinerea): 11.54%; EC50 ([1]; read-out: EC50): 0.15 µg/mL
